# According to PMC8761492 (Life Science Alliance, 2022):
# Where two headings read alike, the source gives them in different places. Starred links: 1 amine or outer side, 2 acyl side, 3 side chain; linkers in the order of their positions; H or OH if unused. Positions of bridges follow the written chain, without caps; N, C: chain ends. Non-standard residues stand in square brackets, D forms with d. Residues, ends and D or L forms follow the SMILES beside them. *: point of attachment. X1 = CC[C@H](C)[C@@H](N[*:1])[C@@H](O)CC(=O)O[C@H](C(=O)[C@H](C)C(=O)[*:2])C(C)C; NMeY = CN[C@@H](Cc1ccc(O)cc1)C(=O)O; dNMeL = CN[C@H](CC(C)C)C(=O)O; Pyruvoyl = CC(=O)C(=O)*
# Assays:
# [1] = cited from earlier work
# COVID-19 = assay: APLICOV-PC: mortality, ventilation, ICU admission and oxygen therapy; type: in vivo, human
# Procedure: Secondary outcomes included change from baseline of viral load, as evaluated by quantitative PCR via central laboratory on nasopharyngeal exudate or sampled from the lower respiratory tract within 48 h before first administration of plitidepsin and on days 4, 7, 15, and 31, and the percentage of patients requiring oxygen therapy, noninvasive mechanical ventilation, invasive mechanical ventilation and/or intensive care unit admission, and the percentage of patients with a fatal outcome on days 7, 15, and 31.
# Analysis for preliminary evidence of efficacy was performed on all patients who had efficacy assessments at baseline and at least one subsequent assessment during treatment.
# In regards with subgroup analyses, safety and efficacy outcomes also were assessed by age-group (<65 versus ≥65 yr) and efficacy outcomes were assessed by disease severity at baseline. Safety outcomes were also assessed before and after the implementation of the protocol amendment.
# [2] = 1-hour D1,8,15 q4wk, ref phase 1 programme
# [3] = 1-hour iv D1-5 q3wk, ref APL-A-004-98
# [4] = 3-hour D1,15 q4wk, ref phase 1 programme
# [5] = 24-hour D1,8,15 q4wk, ref phase 1 programme
# [6] = 24-hour D1,15 q4wk, plitidepsin alone, ref phase 1 programme
# [7] = Day 1 to Day 7, 1.5 mg (N = 14)
# [8] = Day 1 to Day 7, 2.0 mg (N = 15)
# [9] = Day 1 to Day 7, 2.5 mg (N = 15)
# [10] = Day 1 to Day 31, 1.5 mg (N = 14)
# [11] = Day 1 to Day 31, 2.0 mg (N = 15)
# [12] = Day 1 to Day 31, 2.5 mg (N = 15)
# [13] = Day 1 to Day 31, Total (N = 44)
# [14] = Day 8 to Day 15, 1.5 mg (N = 14)
# [15] = Day 8 to Day 15, 2.0 mg (N = 15)
# [16] = Day 8 to Day 15, 2.5 mg (N = 15)
# [17] = Day 8 to Day 15, Total (N = 44)
# [18] = Day 16 to Day 31, 1.5 mg (N = 14)
# [19] = Day 16 to Day 31, 2.0 mg (N = 15)
# [20] = Day 16 to Day 31, 2.5 mg (N = 15)
# [21] = Day 16 to Day 31, Total (N = 44)
# [22] = day 1 to Day 7, Moderate (N=23)
# [23] = day 1 to Day 15, Moderate (N=23)
# [24] = day 1 to Day 31, Moderate (N=23)
smiles,measurement,setting,value
CC[C@H](C)[C@H]1NC(=O)[C@@H](NC(=O)[C@@H](CC(C)C)N(C)C(=O)[C@@H]2CCCN2C(=O)C(C)=O)[C@@H](C)OC(=O)[C@H](Cc2ccc(OC)cc2)N(C)C(=O)[C@@H]2CCCN2C(=O)[C@H](CC(C)C)NC(=O)[C@@H](C)C(=O)[C@H](C(C)C)OC(=O)C[C@@H]1O [Plitidepsin] (Pyruvoyl-P[dNMeL]T[X1]LP[NMeY](Me); ester 3-C),MTD,[1]; [2],3.60 mg/m2
same,RD,[1]; [2],3.2 mg/m2
same,MTD,[1]; [3],1.35 mg/m2
same,RD,[1]; [3],1.2 mg/m2
same,MTD,[1]; [4],6 mg/m2
same,RD,[1]; [4],5 mg/m2
same,MTD,[1]; [5],4.50 mg/m2
same,RD,[1]; [5],3.75 mg/m2
same,MTD,[1]; [6],6 mg/m2
same,RD,[1]; [6],5 mg/m2
same,recommended dose for subsequent phase 2 studies,"[1]; cancer patients, daily over 5 consecutive days",1.2 mg/m^2/day
same,Mortality from Day 1 to Day 31,COVID-19; 1.5 mg (N = 14),1 (7.1)
same,Mortality from Day 1 to Day 31,COVID-19; 2.5 mg (N = 15),1 (6.7)
same,Patients requiring invasive mechanical ventilation and/or intensive care unit admission,COVID-19; [7],2 (14.3)
same,Patients requiring noninvasive mechanical ventilation,COVID-19; [7],4 (28.6)
same,Patients requiring invasive mechanical ventilation and/or intensive care unit admission,COVID-19; [8],1 (6.7)
same,Patients requiring noninvasive mechanical ventilation,COVID-19; [8],0
same,Patients requiring invasive mechanical ventilation and/or intensive care unit admission,COVID-19; [9],2 (13.3)
same,Patients requiring noninvasive mechanical ventilation,COVID-19; [9],1 (6.7)
same,Patients requiring invasive mechanical ventilation and/or intensive care unit admission,"COVID-19; Day 1 to Day 7, Total (N = 44)",5 (11.4)
same,Patients requiring noninvasive mechanical ventilation,"COVID-19; Day 1 to Day 7, Total (N = 44)",5 (11.4)
same,Patients requiring invasive mechanical ventilation and/or intensive care unit admission,COVID-19; [10],2 (14.3)
same,Patients requiring noninvasive mechanical ventilation,COVID-19; [10],5 (35.7)
same,Patients requiring oxygen therapy at,COVID-19; [10],12 (85.7)
same,Patients requiring invasive mechanical ventilation and/or intensive care unit admission,COVID-19; [11],1 (6.7)
same,Patients requiring noninvasive mechanical ventilation,COVID-19; [11],1 (6.7)
same,Patients requiring oxygen therapy at,COVID-19; [11],12 (80.0)
same,Patients requiring invasive mechanical ventilation and/or intensive care unit admission,COVID-19; [12],3 (20.0)
same,Patients requiring noninvasive mechanical ventilation,COVID-19; [12],2 (13.3)
same,Patients requiring oxygen therapy at,COVID-19; [12],11 (73.3)
same,Patients requiring invasive mechanical ventilation and/or intensive care unit admission,COVID-19; [13],6 (13.6)
same,Patients requiring noninvasive mechanical ventilation,COVID-19; [13],8 (18.2)
same,Patients requiring oxygen therapy at,COVID-19; [13],35 (79.5)
same,Patients requiring oxygen therapy at,"COVID-19; Day 7, 1.5 mg (N=14)",12 (85.7)
same,Patients requiring oxygen therapy at,"COVID-19; Day 7, 2.0 mg (N = 15)",12 (80.0)
same,Patients requiring oxygen therapy at,"COVID-19; Day 7, 2.5 mg (N=15)",11 (73.3)
same,Patients requiring oxygen therapy at,"COVID-19; Day 7, Total (N=44)",35 (79.5)
same,Patients requiring invasive mechanical ventilation and/or intensive care unit admission,COVID-19; [14],1 (7.1)
same,Patients requiring noninvasive mechanical ventilation,COVID-19; [14],3 (21.4)
same,Patients requiring invasive mechanical ventilation and/or intensive care unit admission,COVID-19; [15],1 (6.7)
same,Patients requiring noninvasive mechanical ventilation,COVID-19; [15],0
same,Patients requiring invasive mechanical ventilation and/or intensive care unit admission,COVID-19; [16],1 (6.7)
same,Patients requiring noninvasive mechanical ventilation,COVID-19; [16],2 (13.3)
same,Patients requiring invasive mechanical ventilation and/or intensive care unit admission,COVID-19; [17],3 (6.8)
same,Patients requiring noninvasive mechanical ventilation,COVID-19; [17],5 (11.4)
same,Patients requiring oxygen therapy at,"COVID-19; Day 15, 1.5 mg (N=14)",4 (28.6)
same,Patients requiring oxygen therapy at,"COVID-19; Day 15, 2.0 mg (N = 15)",1 (6.7)
same,Patients requiring oxygen therapy at,"COVID-19; Day 15, 2.5 mg (N=15)",4 (26.7)
same,Patients requiring oxygen therapy at,"COVID-19; Day 15, Total (N=44)",9 (20.5)
same,Patients requiring invasive mechanical ventilation and/or intensive care unit admission,COVID-19; [18],1 (7.1)
same,Patients requiring noninvasive mechanical ventilation,COVID-19; [18],1 (7.1)
same,Patients requiring invasive mechanical ventilation and/or intensive care unit admission,COVID-19; [19],1 (6.7)
same,Patients requiring noninvasive mechanical ventilation,COVID-19; [19],1 (6.7)
same,Patients requiring invasive mechanical ventilation and/or intensive care unit admission,COVID-19; [20],1 (6.7)
same,Patients requiring noninvasive mechanical ventilation,COVID-19; [20],1 (6.7)
same,Patients requiring invasive mechanical ventilation and/or intensive care unit admission,COVID-19; [21],3 (6.8)
same,Patients requiring noninvasive mechanical ventilation,COVID-19; [21],3 (6.8)
same,Patients requiring oxygen therapy at,"COVID-19; Day 31, 1.5 mg (N=14)",0
same,Patients requiring oxygen therapy at,"COVID-19; Day 31, 2.0 mg (N = 15)",2 (13.3)
same,Patients requiring oxygen therapy at,"COVID-19; Day 31, 2.5 mg (N=15)",1 (6.7)
same,Patients requiring oxygen therapy at,"COVID-19; Day 31, Total (N=44)",3 (6.8)
same,Mortality from Day 1 to Day 31,COVID-19; Total (N = 44),2 (4.5)
same,Patients requiring oxygen therapy (low flow) at,"COVID-19; day 1 to Day 7, Mild (N=6)",33.3%
same,Patients requiring oxygen therapy at,"COVID-19; day 1 to Day 7, Mild (N=6)",33.3%
same,Patients requiring non-invasive mechanical ventilation at,COVID-19; [22],4.3%
same,Patients requiring oxygen therapy (high flow) at,COVID-19; [22],4.3%
same,Patients requiring oxygen therapy (low flow) at,COVID-19; [22],78.3%
same,Patients requiring oxygen therapy at,COVID-19; [22],78.3%
same,Patients requiring ICU admission at,"COVID-19; day 1 to Day 7, Severe (N=15)",33.3%
same,Patients requiring invasive mechanical ventilation and/or ICU admission at,"COVID-19; day 1 to Day 7, Severe (N=15)",33.3%
same,Patients requiring non-invasive mechanical ventilation at,"COVID-19; day 1 to Day 7, Severe (N=15)",26.7%
same,Patients requiring oxygen therapy (high flow) at,"COVID-19; day 1 to Day 7, Severe (N=15)",26.7%
same,Patients requiring oxygen therapy (low flow) at,"COVID-19; day 1 to Day 7, Severe (N=15)",100%
same,Patients requiring oxygen therapy at,"COVID-19; day 1 to Day 7, Severe (N=15)",100%
same,Patients requiring oxygen therapy (low flow) at,"COVID-19; day 1 to Day 15, Mild (N=6)",33.3%
same,Patients requiring oxygen therapy at,"COVID-19; day 1 to Day 15, Mild (N=6)",33.3%
same,Patients requiring non-invasive mechanical ventilation at,COVID-19; [23],4.3%
same,Patients requiring oxygen therapy (high flow) at,COVID-19; [23],4.3%
same,Patients requiring oxygen therapy (low flow) at,COVID-19; [23],78.3%
same,Patients requiring oxygen therapy at,COVID-19; [23],78.3%
same,Patients requiring ICU admission at,"COVID-19; day 1 to Day 15, Severe (N=15)",40%
same,Patients requiring invasive mechanical ventilation and/or ICU admission at,"COVID-19; day 1 to Day 15, Severe (N=15)",40%
same,Patients requiring invasive mechanical ventilation at,"COVID-19; day 1 to Day 15, Severe (N=15)",13.3%
same,Patients requiring non-invasive mechanical ventilation at,"COVID-19; day 1 to Day 15, Severe (N=15)",40%
same,Patients requiring oxygen therapy (high flow) at,"COVID-19; day 1 to Day 15, Severe (N=15)",40%
same,Patients requiring oxygen therapy (low flow) at,"COVID-19; day 1 to Day 15, Severe (N=15)",100%
same,Patients requiring oxygen therapy at,"COVID-19; day 1 to Day 15, Severe (N=15)",100%
same,Patients requiring oxygen therapy (low flow) at,"COVID-19; day 1 to Day 31, Mild (N=6)",33.3%
same,Patients requiring oxygen therapy at,"COVID-19; day 1 to Day 31, Mild (N=6)",33.3%
same,Patients requiring non-invasive mechanical ventilation at,COVID-19; [24],4.3%
same,Patients requiring oxygen therapy (high flow) at,COVID-19; [24],4.3%
same,Patients requiring oxygen therapy (low flow) at,COVID-19; [24],78.3%
same,Patients requiring oxygen therapy at,COVID-19; [24],78.3%
same,Deaths at,"COVID-19; day 1 to Day 31, Severe (N=15)",13.3%
same,Patients requiring ICU admission at,"COVID-19; day 1 to Day 31, Severe (N=15)",40%
same,Patients requiring invasive mechanical ventilation and/or ICU admission at,"COVID-19; day 1 to Day 31, Severe (N=15)",40%
same,Patients requiring invasive mechanical ventilation at,"COVID-19; day 1 to Day 31, Severe (N=15)",20%
same,Patients requiring non-invasive mechanical ventilation at,"COVID-19; day 1 to Day 31, Severe (N=15)",46.7%
same,Patients requiring oxygen therapy (high flow) at,"COVID-19; day 1 to Day 31, Severe (N=15)",40%
same,Patients requiring oxygen therapy (low flow) at,"COVID-19; day 1 to Day 31, Severe (N=15)",100%
same,Patients requiring oxygen therapy at,"COVID-19; day 1 to Day 31, Severe (N=15)",100%
same,patients requiring nonmechanical invasive ventilation,"COVID-19; moderate disease, one patient",4.3%
same,patients requiring intensive care support,"COVID-19; severe disease at baseline, 6 of 15",40%
same,patients requiring nonmechanical invasive ventilation,"COVID-19; severe disease, seven patients",46.7%
same,patients requiring intensive care support,COVID-19; six of 44 patients,13.6%
